From patent US11672265B2, “Egg replacement containing euglena-derived components” (NOBLEGEN, INC., priority 2019, dated 2023)
Where two headings read alike, the source gives them in different places.

Legend:
[1] = system: microbial growth in non-heat treated biomass; assay type: cell-based, yeast, mold, bacteria; settings: refrigerator (4° C.) 5 days, CP 1000 ppm, SB + PS 1000 ppm each, BV 0.25% (w/w)
Protocol: A biomass stored in the refrigerator at harvested pH (pH 2.75) for 2 days after harvest was chosen for microbial analysis. Four different pH conditions were used for non-heat treated biomass storage, pH 3, 4.5, 5 and 7. Three different antimicrobials (see Table 19 for the names and usage levels) were added to biomass at each pH selected. Control without any antimicrobial agents were also stored at different selected pHs. All the biomass samples were stored in a 4° C. refrigerator for 5 days and a TSA plate assay was done to see the presence of any microbes at the 5 day mark.
Samples without any microbial growth were considered for further storage study. After 16 days of storage, a TSA plating was done on all the heat treated biomass and non-heated biomass with SB+PS at pH 3, 4.5 and 5.

[2] = system: microbes in fresh biomass; test: Treatment of fresh biomass with nisin, TSA plates; assay type: cell-based, bacteria and yeast
Protocol: Method: Obtained fresh biomass and was washed 1 time with 2.5 times water. The biomass was diluted to 10% (solid content-10.36 w/w %, initial pH was pH 3.35 and the pH was adjusted to 7.2 using 2.5 M NaOH. […] Similarly, about the same amount of biomass without Nisin was also left at both conditions.

Row | Compound | Microbial growth observed in non-heat treated biomass with antimicrobials ([1]; pH 3) | Microbial growth observed in non-heat treated biomass with antimicrobials ([1]; pH 4.5) | Presence of microbes in biomass treated with nisin ([2]; 70 ppm nisin, biomass pH 7.2, room temperature or 4° C., up to 24 hours) | Prevention of growth of microorganisms in fresh biomass or wet protein concentrate ([2]; 75 ppm of Nisin (conclusion))
1 | CCC(=O)[O-].CCC(=O)[O-].[Ca+2] [CP, Calcium propionate] | yeast | yeast | – | –
2 | nisin | – | – | Presence of microbes were found at all storage conditions irrespective of the presence of nisin or storage time | will not be able to prevent the growth of microorganisms
